One assay addresses TRPM3 (Homo sapiens, UniProt Q9HCF6). Description: Fluorescence cell-based assay, TRPM3. As to conditions: calcium 5 dye, duplicate. The protocol:
(§1) The assays were performed at SB Discovery (Glasgow, UK) on a fee-for-service basis. Human TRP cells were trypsinised, counted and seeded in black, clear-bottomed 96 well plates at a density of 50,000 cells per well in 100 μL volume and incubated overnight. Next day, the cells were loaded with calcium 5 dye or membrane potential dye. TRPV1-5, TRPA1, TRPM2, TRPM3, and TRPM8 were tested using the calcium 5 dye. TRPC1, TRPC3-7, and TRPM4-5 were tested using the membrane potential dye. Both dye solutions were made up in HEPES buffered Hank's balanced salt solution (HBSS). Dye solution (90 μL) was added to the wells and incubated at 37° C. for 1 hour. Test compounds and standard inhibitors (10 μL) were then added to the wells and incubated at room temperature for 10 minutes. The plates were then placed in the flexstation and fluorescence monitored every 1.52 seconds. After 20 seconds agonist was added and the fluorescence monitored for 2 minutes at 485 nm/525 nm and 530 nm/565 nm, Ex/Em, for the calcium 5 dye and the membrane potential dye respectively. Controls-TRPV1: capsazepine; TRPV2: tranilast; TRPV3: ruthenium red; TRPV4: ruthenium red; TRPV5: Gd^3+; TRPA1, ruthenium red; TRPC1: Gd^3+; TRPC3: Pyr3; TRPC4: ML 204; TRPC5: ML 204; TRPC6: ML 204; TRPC7: SKF 96365; TRPM2: 2-APB; TRPM3: Mef acid; TRPM4: clotrimazole; TRPM5: TPPO; TRPM8: 2-APB. […]

The target in a further assay is TRPV1 (Homo sapiens, UniProt Q8NER1). Kind of assay: Fluorescence cell-based assay, TRPV1. As to conditions: calcium 5 dye, duplicate. The protocol:
as §1

The test system of a further assay is U251 cells. Description: Viability of U251 cells transiently over-expressing hTRPV2. It counts as cell-based, human. Conditions: 5 μM PL, 24 hours, p=0.0002, n=9, listed as PL. The protocol: 50,000 U251 cells were seeded in each well of a 24 well plate. The next day cells were transfected with hTRPV2-RFP plasmid. After incubating for 48 hours the media was changed and PL was added at 5 and 10 μM. 24 hours later cell viability was assessed using CellTitre-Blue (Promega). Transfection efficiency was assessed using flow cytometry.
(§2) Cells were harvested from plates by washing with media (HEK293) or TrypLE express (Gibco). The media was removed after centrifugation and the cells were washed twice with binding buffer before being incubated for 30 minutes at room temperature with Annexin V-APC (eBiosciences, 1:100) and 7-AAD (Pharmigen, 1:50). Samples were diluted with binding buffer and analyzed by flow cytometry using BD LSRFortessa X-20 with FACS Diva software. Samples with single stains were used as controls.

The target in the next assay is TRPM8 (Homo sapiens, UniProt Q7Z2W7). Description: Fluorescence cell-based assay, TRPM8. Conditions: calcium 5 dye, duplicate. The protocol: as §1
The next assay has as its target TRPC1 (Homo sapiens, UniProt P48995). Kind of assay: Fluorescence cell-based assay, TRPC1. Conditions: membrane potential dye, duplicate. Here is the method: as §1
In another assay the target is T1, TRPV2 (Homo sapiens, UniProt Q9Y5S1).
T1 sequence (Q9Y5S1 1-764): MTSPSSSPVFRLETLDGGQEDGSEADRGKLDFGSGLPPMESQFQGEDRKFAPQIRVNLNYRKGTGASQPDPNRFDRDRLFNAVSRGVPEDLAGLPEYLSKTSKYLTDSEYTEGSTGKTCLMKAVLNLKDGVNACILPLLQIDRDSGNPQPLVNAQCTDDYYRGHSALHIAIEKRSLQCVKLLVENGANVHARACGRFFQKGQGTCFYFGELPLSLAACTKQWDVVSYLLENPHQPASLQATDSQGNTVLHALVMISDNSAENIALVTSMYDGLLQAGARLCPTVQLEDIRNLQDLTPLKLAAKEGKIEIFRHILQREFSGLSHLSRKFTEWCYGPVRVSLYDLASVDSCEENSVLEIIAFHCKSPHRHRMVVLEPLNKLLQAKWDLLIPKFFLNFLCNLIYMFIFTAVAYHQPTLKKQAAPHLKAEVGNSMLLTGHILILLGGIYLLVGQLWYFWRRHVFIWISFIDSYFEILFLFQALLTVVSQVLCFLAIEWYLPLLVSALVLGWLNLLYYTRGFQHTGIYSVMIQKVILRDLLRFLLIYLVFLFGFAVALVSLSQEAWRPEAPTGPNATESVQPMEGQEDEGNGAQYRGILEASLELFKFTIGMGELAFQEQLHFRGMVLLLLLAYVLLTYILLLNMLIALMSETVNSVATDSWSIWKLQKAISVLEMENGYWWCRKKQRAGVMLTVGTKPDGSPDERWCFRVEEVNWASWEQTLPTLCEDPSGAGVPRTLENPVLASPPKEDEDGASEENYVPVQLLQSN
Description: Intracellular calcium imaging (Fura-2 AM) in HepG2 cells. It counts as cell-based. Conditions: 1 at 5 μM. The protocol: Cells (ATCC) were grown to 50% confluency in DMEM (Gibco) supplemented with 10% FBS (Gibco), GlutaMax (Gibco), MEM and NEAA (Gibco), 4.5 g/L glucose and 0.11 g/L sodium pyruvate. Cells were seeded in μ-ibidi 8 well plates and transfected with TRPV2-RFP^34 (kindly gifted by Prof. Itaru Kojimu Gunma University, Japan). After 48 h of incubation, cells were subjected to calcium imaging. Intracellular calcium measurements were performed with Fura-2 AM (Life Technologies) and modified from previously described studies.^12 In short, 1 hour before the measurement, cells were loaded with 5 μM Fura-2-AM for 45 minutes. Cell medium was replaced by Tyrod's solution (119 mM NaCl, 5 mM KCl, 2 mM CaCl2, 2 mM MgCl2, 6 g/L glucose, 25 mM HEPES pH 7.4). Simultaneously, the respective treatment was added to the cells (final concentration of 1% DMSO (control), 5 μM piperlongumine and 10 μM tranilast) and cells were allowed to re-adjustment for 15 minutes. Fura-2 AM emissions from 340 nm and 380 nm excitation were recorded for 1 minute before TRPV2 was activated by addition of 4 μM or 20 μM cannabidiol (CBD). Image analysis was done using the MetaFluor Analyst software. The statistical analysis was performed with astatsa.com. After calcium imaging acquisition, the cells were immediately fixed with 4% paraformaldehyde for 15 min. […]

A further assay deals with HEK293 cells. Kind of assay: Viability of HEK cells transiently transfected with TRPV2. It counts as cell-based, human. Here is the method: 75,000 HEK293 cells were seeded in each well of a 24 well plate. The next day cells were transfected with hTRPV2-RFP plasmid (kindly gifted by Prof. Itaru Kojima, Gunma University, Japan). After incubating for 24 hours the media was changed and PL was added at 5 and 10 μM. 24 hours later cell viability was assessed using CellTitre-Blue (Promega) or Annexin V, 7-AAD staining. Transfection efficiency was assessed using flow cytometry.
as §2

In the next assay the target is TRPC7 (Homo sapiens, UniProt Q9HCX4). Description: Fluorescence cell-based assay, TRPC7. As to conditions: membrane potential dye, spread in log units, duplicate. The protocol: as §1
Chain of TRPC7 (Q9HCX4 whole entry): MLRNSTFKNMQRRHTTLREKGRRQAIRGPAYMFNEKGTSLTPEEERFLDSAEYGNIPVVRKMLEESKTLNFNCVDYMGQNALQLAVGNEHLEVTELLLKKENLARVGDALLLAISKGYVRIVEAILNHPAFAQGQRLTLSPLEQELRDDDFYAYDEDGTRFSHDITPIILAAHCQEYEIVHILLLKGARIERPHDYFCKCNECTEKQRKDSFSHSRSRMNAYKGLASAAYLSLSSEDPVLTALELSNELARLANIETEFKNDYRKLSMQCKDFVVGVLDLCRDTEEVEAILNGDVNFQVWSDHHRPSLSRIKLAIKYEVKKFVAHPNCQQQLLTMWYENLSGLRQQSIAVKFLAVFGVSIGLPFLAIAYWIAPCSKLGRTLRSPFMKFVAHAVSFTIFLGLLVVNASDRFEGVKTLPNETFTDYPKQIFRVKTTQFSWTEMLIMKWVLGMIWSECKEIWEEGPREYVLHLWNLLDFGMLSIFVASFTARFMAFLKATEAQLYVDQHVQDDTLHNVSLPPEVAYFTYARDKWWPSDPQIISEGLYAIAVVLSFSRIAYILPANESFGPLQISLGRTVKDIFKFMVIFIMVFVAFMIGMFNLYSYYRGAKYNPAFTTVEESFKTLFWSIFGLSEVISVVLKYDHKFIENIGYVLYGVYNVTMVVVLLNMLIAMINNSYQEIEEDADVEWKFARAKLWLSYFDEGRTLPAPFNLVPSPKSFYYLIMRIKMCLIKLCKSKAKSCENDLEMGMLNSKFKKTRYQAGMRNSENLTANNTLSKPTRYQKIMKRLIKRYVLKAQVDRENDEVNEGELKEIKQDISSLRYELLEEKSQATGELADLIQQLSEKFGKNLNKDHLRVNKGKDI

Entries after “also recorded” stand apart in the source; their conditions may differ.

The IC50 is the concentration that inhibits the measured activity by half.

Chain of TRPV1 (Q8NER1 whole entry): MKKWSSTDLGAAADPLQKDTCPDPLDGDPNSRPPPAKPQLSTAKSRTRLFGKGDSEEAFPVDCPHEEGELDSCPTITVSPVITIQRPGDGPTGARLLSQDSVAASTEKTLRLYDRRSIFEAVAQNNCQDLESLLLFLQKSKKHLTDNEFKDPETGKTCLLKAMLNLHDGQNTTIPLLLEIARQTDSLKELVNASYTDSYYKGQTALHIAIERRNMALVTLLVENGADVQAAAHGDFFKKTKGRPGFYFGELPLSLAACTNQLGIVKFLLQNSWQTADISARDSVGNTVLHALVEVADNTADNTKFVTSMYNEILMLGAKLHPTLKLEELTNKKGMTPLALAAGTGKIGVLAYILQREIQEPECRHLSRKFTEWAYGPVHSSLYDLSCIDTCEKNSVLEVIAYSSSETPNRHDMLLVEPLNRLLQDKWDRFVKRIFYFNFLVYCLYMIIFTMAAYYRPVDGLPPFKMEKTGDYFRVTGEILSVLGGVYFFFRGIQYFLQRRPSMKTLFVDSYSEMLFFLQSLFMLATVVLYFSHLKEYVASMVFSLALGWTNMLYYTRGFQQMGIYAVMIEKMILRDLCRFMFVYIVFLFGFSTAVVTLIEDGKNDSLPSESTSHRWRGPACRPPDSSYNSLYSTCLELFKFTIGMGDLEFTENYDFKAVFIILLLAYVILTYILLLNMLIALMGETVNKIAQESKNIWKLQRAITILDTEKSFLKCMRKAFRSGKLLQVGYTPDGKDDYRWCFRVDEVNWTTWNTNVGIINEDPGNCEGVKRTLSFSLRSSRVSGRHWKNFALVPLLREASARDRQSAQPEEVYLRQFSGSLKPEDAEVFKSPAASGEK
Chain of TRPC1 (P48995 whole entry): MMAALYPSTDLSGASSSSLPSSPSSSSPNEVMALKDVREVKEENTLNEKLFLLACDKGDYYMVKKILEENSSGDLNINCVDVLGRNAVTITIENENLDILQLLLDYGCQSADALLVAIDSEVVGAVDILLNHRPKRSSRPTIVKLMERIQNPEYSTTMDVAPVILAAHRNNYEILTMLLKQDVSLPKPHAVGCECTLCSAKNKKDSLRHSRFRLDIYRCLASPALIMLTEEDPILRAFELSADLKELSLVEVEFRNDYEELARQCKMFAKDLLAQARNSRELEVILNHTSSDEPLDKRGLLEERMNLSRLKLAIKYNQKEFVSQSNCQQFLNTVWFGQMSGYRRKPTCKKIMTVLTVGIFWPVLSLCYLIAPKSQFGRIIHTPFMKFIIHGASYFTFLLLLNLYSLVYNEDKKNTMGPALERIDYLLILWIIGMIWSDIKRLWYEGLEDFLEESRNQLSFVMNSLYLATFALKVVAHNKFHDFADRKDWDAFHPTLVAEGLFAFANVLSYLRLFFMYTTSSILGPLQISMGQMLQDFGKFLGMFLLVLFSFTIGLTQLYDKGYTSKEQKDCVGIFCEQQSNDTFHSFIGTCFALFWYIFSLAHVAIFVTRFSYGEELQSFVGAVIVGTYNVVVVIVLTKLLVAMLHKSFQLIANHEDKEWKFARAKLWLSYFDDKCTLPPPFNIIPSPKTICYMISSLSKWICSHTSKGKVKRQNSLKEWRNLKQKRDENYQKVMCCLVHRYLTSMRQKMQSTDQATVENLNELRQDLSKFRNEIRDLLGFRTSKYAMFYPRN
Chain of TRPM3 (Q9HCF6 whole entry): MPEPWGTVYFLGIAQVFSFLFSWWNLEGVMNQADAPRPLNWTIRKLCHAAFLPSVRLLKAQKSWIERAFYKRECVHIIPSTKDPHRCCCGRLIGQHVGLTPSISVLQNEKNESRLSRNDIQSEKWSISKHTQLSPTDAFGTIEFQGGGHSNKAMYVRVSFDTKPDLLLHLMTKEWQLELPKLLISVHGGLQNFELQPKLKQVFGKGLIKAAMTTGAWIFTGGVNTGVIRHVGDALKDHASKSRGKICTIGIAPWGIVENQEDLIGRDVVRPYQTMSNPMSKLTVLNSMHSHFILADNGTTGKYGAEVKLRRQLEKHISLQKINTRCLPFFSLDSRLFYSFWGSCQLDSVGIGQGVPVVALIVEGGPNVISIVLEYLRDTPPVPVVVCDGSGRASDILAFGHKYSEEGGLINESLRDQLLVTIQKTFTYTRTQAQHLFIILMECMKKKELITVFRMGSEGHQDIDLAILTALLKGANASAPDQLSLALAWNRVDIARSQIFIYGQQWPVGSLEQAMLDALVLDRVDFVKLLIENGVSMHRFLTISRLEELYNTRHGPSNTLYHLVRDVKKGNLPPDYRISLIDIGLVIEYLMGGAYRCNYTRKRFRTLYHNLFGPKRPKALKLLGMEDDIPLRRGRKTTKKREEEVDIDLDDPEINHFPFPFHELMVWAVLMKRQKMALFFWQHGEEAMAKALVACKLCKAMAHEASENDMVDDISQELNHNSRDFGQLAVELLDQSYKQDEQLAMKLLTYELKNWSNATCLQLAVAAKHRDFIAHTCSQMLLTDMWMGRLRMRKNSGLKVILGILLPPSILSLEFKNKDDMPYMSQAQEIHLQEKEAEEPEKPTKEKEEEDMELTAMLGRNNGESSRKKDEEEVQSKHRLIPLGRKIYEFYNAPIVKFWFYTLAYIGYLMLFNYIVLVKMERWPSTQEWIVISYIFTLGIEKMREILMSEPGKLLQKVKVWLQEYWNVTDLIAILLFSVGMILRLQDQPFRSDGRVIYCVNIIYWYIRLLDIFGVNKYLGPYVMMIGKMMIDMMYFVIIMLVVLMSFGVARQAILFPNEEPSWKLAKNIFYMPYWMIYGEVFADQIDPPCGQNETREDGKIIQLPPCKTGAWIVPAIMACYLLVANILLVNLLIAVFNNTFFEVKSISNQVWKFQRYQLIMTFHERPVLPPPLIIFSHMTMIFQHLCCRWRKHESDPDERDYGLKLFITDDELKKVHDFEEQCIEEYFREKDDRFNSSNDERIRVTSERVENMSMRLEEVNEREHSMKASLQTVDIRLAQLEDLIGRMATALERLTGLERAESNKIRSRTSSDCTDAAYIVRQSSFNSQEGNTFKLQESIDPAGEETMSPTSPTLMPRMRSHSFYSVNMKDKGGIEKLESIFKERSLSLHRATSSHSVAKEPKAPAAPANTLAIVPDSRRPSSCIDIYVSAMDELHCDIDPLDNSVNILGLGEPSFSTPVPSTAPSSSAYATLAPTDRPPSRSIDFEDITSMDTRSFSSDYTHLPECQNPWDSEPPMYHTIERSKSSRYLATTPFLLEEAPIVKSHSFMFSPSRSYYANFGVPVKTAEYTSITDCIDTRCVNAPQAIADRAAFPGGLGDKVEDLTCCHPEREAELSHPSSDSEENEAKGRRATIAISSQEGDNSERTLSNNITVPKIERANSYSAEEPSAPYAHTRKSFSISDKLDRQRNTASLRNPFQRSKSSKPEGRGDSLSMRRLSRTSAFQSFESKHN

With `COc1cc(/C=C/C(=O)N2CCC=CC2=O)cc(OC)c1OC` [Compound 1, piperlongumine], the IC50 on TRPM3 is more than 100 µM; at TRPV1 it was more than 100 µM; on TRPM8, more than 100 µM; against TRPC1, more than 100 µM; on TRPC7, 64 ± 0.06 µM. Also, the “Viability of hTRPV2-transfected cells vs non-transfected controls” value in the assay on U251 cells is reported as “reduced viability compared to the non-transfected controls; also recorded: increases PL toxicity”. In addition, the “Inhibition of CBD evoked calcium influx in HepG2 cells” value is “No statistically significant difference is observed between all samples” on TRPV2 (CBD 4 μM); “significantly inhibited; also recorded: significant difference between control and 1 (p<0.01)” on TRPV2 (CBD 20 μM, 120 s post stimulation). Besides, in the assay with HEK293 cells, the “Viability of TRPV2-transfected cells vs non-transfected controls” value is “identical result”.

(Values after patent US11273152B2, “TRPV2 antagonists” (Instituto de Medicina Molecular João Lobo Antunes, priority 2017, dated 2022).)
